Experimental data from patent US11919880B2, “HCV protease inhibitors” (The Regents of the University of California, priority 2020, dated 2024).
Values joined by “and” are separate entries in the source; they are usually repeats but may differ in a detail not shown here. Identical values can stand only once. Like-named read-outs stand apart in the source and are kept apart here.

What was measured:
[1] = system: sub-genomic HCV GT1b replicon (BM4-5 FEO), GT1b WT; assay: HCV replicon assay (luciferase antiviral efficacy); format: cell-based, hepatitis C virus; details: BM4-5 FEO cells, 48 h, read-out: EC50 ± SD Gt 1b wt
Method: (§1) The 20 compounds from class C were tested […] for inhibition of viral replication (GT1b wild-type) in BM4-5 FEO cells and for mammalian cell cytotoxicity. The numbers of virus particles were evaluated by quantifying luciferase produced during the virus life cycle^41 while toxicity was evaluated using a cell viability assay. […] Prior to additional biochemical studies, several key chemical properties for each of the Class C molecules were determined.
Replicon construct. The BM4-5 replicon is a sub-genomic HCV GT1b replicon that contains adaptive mutation of serine in the NS5A region^41. The firefly luciferase gene was added into the BM4-5 replicon to generate BM4-5 FEO replicon. The construction procedures have been previously described^42.
(§2) Luciferase antiviral efficacy and cells viability assays. BM4-5 FEO replicon approximately 10,000 cells in 100 μL of medium were seeded into 96-well plates and incubate for 6 h for attachment. Then, the compounds were added at to the wells in specific concentration and incubate for 48 h. The luciferase assay (Bright-Glo; Promega) was carried out according to the manufacturer's instructions. Luciferase activity was determined using a microplate luminometer (Veritas microplate luminometer; Turner Biosystems). For cells viability assays, BM4-5 FEO at the density 10,000 cells in 100 μL medium was incubated at 37° C. for 6 h for attachment, then the compounds were added and incubated for another 48 hours. The number of living cells were measured by Cell Titer-blue assay (Promega). The fluorescence absorption (560Ex/590Em) for 96-well plate was read by Benchmark Scientific MR9600 with. The activity and toxicity of each compound were measured by at least six different concentrations in triplicate.

BM4-5 human liver cells = assay: CellTiter-Blue cell viability assay; format: cell-based; details: BM4-5 FEO cells, 48 h, read-out: LC50 ± SD
Method: as §1, with “determined. Calculated polar surface area (PSA), lipophilicity (LogP), and molecular weight for each compound (Table IA) complied with the general criteria for drug-like molecules.” for “determined.”
as §2

[2] = molecular target: T1, full-length HCV NS3/4A GT1b D168A (Hepatitis C virus genotype 1b, UniProt Q9WMX2, D1194A); assay: biochemical; format: biochemical
T1 construct: full-length HCV NS3/4A GT1b D168A; His tag; made in house; host or cells: E. coli Rosetta 2(DE3)
T1 sequence (Q9WMX2 1027-1657, looked up, stated change not applied): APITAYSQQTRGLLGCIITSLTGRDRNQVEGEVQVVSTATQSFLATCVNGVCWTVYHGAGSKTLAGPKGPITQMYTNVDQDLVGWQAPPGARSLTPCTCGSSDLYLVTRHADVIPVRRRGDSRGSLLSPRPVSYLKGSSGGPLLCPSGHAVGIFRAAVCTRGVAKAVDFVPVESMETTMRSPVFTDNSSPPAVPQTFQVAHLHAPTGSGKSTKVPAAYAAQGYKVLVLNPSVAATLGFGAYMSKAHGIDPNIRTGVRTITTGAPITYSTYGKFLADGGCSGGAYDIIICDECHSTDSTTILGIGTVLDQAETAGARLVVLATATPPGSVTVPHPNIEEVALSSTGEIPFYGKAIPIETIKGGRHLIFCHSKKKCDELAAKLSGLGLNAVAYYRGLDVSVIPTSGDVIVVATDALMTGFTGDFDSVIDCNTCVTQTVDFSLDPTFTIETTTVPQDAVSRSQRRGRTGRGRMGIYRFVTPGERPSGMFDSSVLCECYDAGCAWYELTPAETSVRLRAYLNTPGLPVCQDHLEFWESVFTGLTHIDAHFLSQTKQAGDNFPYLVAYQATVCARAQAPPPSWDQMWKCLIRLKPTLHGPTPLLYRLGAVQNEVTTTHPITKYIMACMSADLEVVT
T1 sequence (Q9WMX2 1658-1711, stated change not applied): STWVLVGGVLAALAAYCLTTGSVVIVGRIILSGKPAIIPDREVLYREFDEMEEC
Method: (§3) In order to validate that this group of molecules elicit their cellular effects via inhibition of the viral protease, we incubated compounds 1, 12 and 22 with recombinant NS3/4A protease GT1b and an inhibitor-resistant mutant containing a D168A mutation. D168 is located in the S2 and S4 sub-pockets and mutations in these sub-pockets can cause significant resistance to the inhibitors resulting in decreased activity of peptidomimetic inhibitors^21,37-38. […] As a control, potency was evaluated using the approved HCV protease inhibitor, simeprevir.
(§4) Plasmid construction and purification of HCV NS3/A protein. Drug resistant mutant D168A was generated by mutagenesis using NS3-containing recombinant plasmid (pETDuet-1 Hepatis C Virus NS3/4A, a gift from Michael Johnson, Addgene plasmid #16196) as a template. The single mutation of aspartic acid (D) to alanine (A) was introduced by mutagenesis at position 168 using specific primers (Forward: 5′-[…]-3′ and Reverse: 5′-[…]-3′). The over expression and purification were preformed followed the method that previously described^43. Rosetta 2(DE3) cells (Novagen) containing the modified recombinant plasmid with histidine tag were grown in Lysogeny Broth medium. The over expression was introduced by addition of Isopropyl β-D-1-thiogalactopyranoside (IPTG) to the final concentration of 0.5 mM and the bacteria were incubated at room temperature for 16 h. […] The solution was passed through Ni-NTA column and washed by buffer B (50 mM HEPES, pH 7.6, 500 mM NaCl, 50 mM imidazole, 5 mM β-MCE, 0.2% Triton X-100, and 15% glycerol). The His-tag fused protein was eluted by buffer C (50 mM HEPES, pH 7.6, 500 mM of NaCl, 500 mM of imidazole, 5 mM β-MCE, 0.2% Triton X-100, and 15% glycerol) followed by dialysis using buffer (50 mM HEPES, pH 7.6 and 500 mM of NaCl). Purified NS3/4A protein was concentrated an d buffer exchanged into buffer D (50 mM HEPES, pH 7.6, 500 mM of NaCl, 5 mM β-MCE, 0.2% Triton X-100, and 50% glycerol) using a protein concentrator 10 k (Amicon®).
(§5) HCV NS3/4A enzymatic inhibition assay. The activities of two proteases (recombinant HCV NS3/4A GT1b WT and full-length HCV NS3/4A GT1b D168A) were measured using a fluorogenic substrate, Ac-Glu-Glu-Val-Val-Ala-Cys-AMC (Sigma-Aldrich) where AMC corresponds to 7-amino-4-methylcourmarin. Assays were performed in 50 mM HEPES pH 7.4, 15 mM NaCl, 0.01% Triton X-100, 10 mM DTT in a black 384-well microplate (BD Falcon). […] Fluorescence was monitored at excitation and emission wavelengths of 360 nm and 460 nm in a Synergy™ HTX Multi-Mode Microplate Reader (BioTek). Data was visualized using Gen5™ Software (Biotek). The activity of enzyme was calculated from the change in relative fluorescence units (RFU) over time. For inhibition assays, compounds were pre-incubated with enzyme for 240 minutes prior to adding the enzyme/inhibitor mixture to the substrate. All assays were performed in triplicate wells.

[3] = molecular target: T2, recombinant HCV NS3/4A GT1b WT (Hepatitis C virus genotype 1b, UniProt Q9WMX2); assay: biochemical; format: biochemical
T2 construct: recombinant HCV NS3/4A GT1b WT
T2 sequence (Q9WMX2 1658-1711): as the sequence (Q9WMX2 1658-1711, stated change not applied) above
T2 sequence (Q9WMX2 1027-1657): as the sequence (Q9WMX2 1027-1657, looked up, stated change not applied) above
Method: as §3, §5

[4] = Potentiometric titration, Sirius T3 instrument; format: physicochemical
Source text: As highlighted in Scheme 1, the tryptophan derived HCV NS3/4 protease inhibitors, 21 and 22, were synthesized starting from 3-(piperidine-1-yl)propan-1-amine (23), which could be accessed in two steps from commercially available N-(bromopropyl)phthalimide and piperidine, and N-Boc protected L-tryptophan (24). Thus, HBTU mediated coupling of […] and 24, followed by N-Boc deprotection and carbamoylation reaction with the appropriate isocyanate provided the desired compounds. 21 and 22. These test compounds were characterized by ^1H-NMR, ^13C-NMR, and HRMS. In addition, experimental pKa values, lipophilicity (LogP), and LogD7.4 of 22 were determined via potentiometric titrations using a Sirius T3 instrument. Compounds 21 and 22, as well as the 20 compounds from the primary screen, were then tested in cell-based assays to evaluate activity against HCV and toxicity to the host cells (Table 2).

pig pancreatic elastase = molecular target: T3, pig pancreatic elastase (Sus scrofa, UniProt P00772); assay: Counter-screening assay, elastase; format: biochemical; details: 13.08 and 14.68, 5.2 μM of 1, 12, and 22, respectively; 40 nM enzyme
T3 construct: purchased Sigma
T3 sequence (P00772 27-266): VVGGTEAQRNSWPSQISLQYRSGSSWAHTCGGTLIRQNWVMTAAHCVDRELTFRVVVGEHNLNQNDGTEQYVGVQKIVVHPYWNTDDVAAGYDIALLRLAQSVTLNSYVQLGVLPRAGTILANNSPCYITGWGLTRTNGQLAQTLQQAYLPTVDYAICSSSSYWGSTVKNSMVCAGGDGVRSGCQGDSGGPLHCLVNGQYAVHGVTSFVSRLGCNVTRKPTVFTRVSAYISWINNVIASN
Method: (§6) In addition, we tested these compounds for inhibition against the fungal serine protease, proteinase K that is structurally related to several mammalian serine proteases such as the proprotein convertase enzymes and furin^44.
(§7) Counter-screening assay. Counter-screening assays were performed with 40 nM of bovine trypsin (Sigma), pig pancreatic elastase (Sigma), human chymotrypsin and proteinase k and 60 μM of the appropriate fluorogenic substrates for trypsin, elastase, chymotrypsin, and proteinase K are Boc-Leu-Arg-Arg-AMC (trypsin), Me-Arg-Arg-Pro-Val-AMC (elastase) and Suc-Arg-Arg-Pro-Phe-AMC (chymotrypsin and proteinase K). Assays were performed in 50 mM HEPES pH 7.4, 15 mM NaCl, 0.01% Triton X-100 in black 96-well microplates (BD Falcon) at a final volume of 50 μL. The final concentration of DMSO in each well was 2.5%. Fluorescence was measured as outlined above.

[5] = system: full-length HCV NS3/4A GT1b D168A; assay: biochemical; format: biochemical, hepatitis C virus; details: for IC50—D168A/IC50—wt ratio: D168A mutant versus wt protease
Method: as §3, §4, §5

proteinase K = proteinase K (Parengyodontium album, UniProt P06873); assay: Counter-screening assay, proteinase K; format: biochemical, fungal; details: 13.08 and 14.68, 5.2 μM of 1, 12, and 22, respectively; 40 nM enzyme
proteinase K, sequence (P06873 106-384): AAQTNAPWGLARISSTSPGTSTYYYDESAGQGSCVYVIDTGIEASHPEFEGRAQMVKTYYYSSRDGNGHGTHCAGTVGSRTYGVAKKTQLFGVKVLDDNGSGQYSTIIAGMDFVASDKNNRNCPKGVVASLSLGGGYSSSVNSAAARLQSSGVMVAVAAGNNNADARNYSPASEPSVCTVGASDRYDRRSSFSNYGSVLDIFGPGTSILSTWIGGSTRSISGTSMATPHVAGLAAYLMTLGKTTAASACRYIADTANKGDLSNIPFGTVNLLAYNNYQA
Method: as §6, §7

bovine trypsin = molecular target: T4, bovine trypsin (Bos taurus, UniProt P00760); assay: Counter-screening assay, trypsin; format: biochemical; details: 13.08 and 14.68, 5.2 μM of 1, 12, and 22, respectively; 40 nM enzyme
T4 construct: purchased Sigma
T4 sequence (P00760 24-246): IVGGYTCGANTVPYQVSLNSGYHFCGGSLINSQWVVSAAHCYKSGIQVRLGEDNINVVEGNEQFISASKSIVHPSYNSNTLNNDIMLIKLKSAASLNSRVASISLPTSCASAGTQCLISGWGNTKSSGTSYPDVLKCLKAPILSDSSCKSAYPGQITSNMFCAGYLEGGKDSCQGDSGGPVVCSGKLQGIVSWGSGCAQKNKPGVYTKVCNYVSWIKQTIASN
Method: as §6, §7

human chymotrypsin = human chymotrypsin (Homo sapiens, UniProt P17538); assay: Counter-screening assay, chymotrypsin; format: biochemical; details: 13.08 and 14.68, 5.2 μM of 1, 12, and 22, respectively; 40 nM enzyme
human chymotrypsin, sequence (P17538 19-263): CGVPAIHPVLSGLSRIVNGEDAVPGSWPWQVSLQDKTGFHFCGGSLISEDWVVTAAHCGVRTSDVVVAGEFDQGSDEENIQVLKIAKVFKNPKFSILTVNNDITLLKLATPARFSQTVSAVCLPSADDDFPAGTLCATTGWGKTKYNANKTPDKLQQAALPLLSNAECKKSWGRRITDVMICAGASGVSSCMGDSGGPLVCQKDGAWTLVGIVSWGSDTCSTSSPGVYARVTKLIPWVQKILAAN
Method: as §6, §7

[6] = 40 nM enzyme, 60 μM Ac-Glu-Glu-Val-Val-Ala-Cys-AMC, 240 min pre-incubation, read-out: IC50 GT1b D168A
[7] = 40 nM enzyme, 60 μM Ac-Glu-Glu-Val-Val-Ala-Cys-AMC, 240 min pre-incubation, read-out: IC50 GT1b WT

SMILES	EC50 [1] [µM]	CC50 (BM4-5 human liver cells) [µM]	further results
O=C(Nc1cccc(Br)c1)NC(Cc1c[nH]c2ccccc12)C(=O)NCCCNC1CCCCCC1 (centres unmarked) [Compound 15]	6.82 ± 0.74		
CC1CCCC(C)N1NCCCNC(=O)C(Cc1c[nH]c2ccccc12)NC(=O)Nc1ccccc1Br (centres unmarked) [Compound 14]	5.15 ± 0.63		
COc1ccc(OC)c(NC(=O)NC(Cc2c[nH]c3ccccc23)C(=O)NCCCN2CCCCC2C)c1 (centres unmarked) [Compound 9]	51.4 ± 15.2	> 100	
O=C(Nc1ccccc1Br)NC(Cc1c[nH]c2ccccc12)C(=O)NCCCNC1CC2CCC1C2 (centres unmarked) [Compound 11]	5.99 ± 2.61		
COc1ccc2[nH]cc(CC(NC(=O)Nc3cc(Cl)ccc3Cl)C(=O)NCCCN3CCCCC3C)c2c1 (centres unmarked) [Compound 10]	33.2 ± 3.17	> 100	
C[C@H]1CCCCN1CCCNC(=O)C(Cc1c[nH]c2ccccc12)NC(=O)Nc1cccc(Br)c1 (some centres unmarked) [Compound 1]			IC50 [2]: 11.4 ± 0.45 µM; EC50 ([1]; Hepatitis C virus, GT1B): 0.95 ± 0.26 µM; IC50 [3]: 14.7 ± 1.23 µM
CC1CCCCN1CCCNC(=O)C(Cc1c[nH]c2ccccc12)NC(=O)Nc1c(F)cc(Br)cc1F (centres unmarked) [Compound 13]	35.4 ± 7.71		
CC(=O)c1cccc(NC(=O)NC(Cc2c[nH]c3ccccc23)C(=O)NCCCN2CCCCC2C)c1 (centres unmarked) [Compound 8]	10.9 ± 4.93	> 100	
CC(C)c1ccc(NC(=O)NC(Cc2c[nH]c3ccccc23)C(=O)NCCCN2CCCC[C@@H]2C)cc1 (some centres unmarked) [Compound 12]			IC50 [2]: 11.5 ± 0.55 µM; EC50 ([1]; Hepatitis C virus, GT1B): 1.5 ± 0.07 µM; IC50 [3]: 13.1 ± 2.77 µM
O=C(Nc1ccccc1Br)NC(Cc1c[nH]c2ccccc12)C(=O)NCCCNC1CCCCC1O (centres unmarked) [Compound 18]	4.58 ± 0.32		
CC(C)c1ccc(NC(=O)N[C@@H](Cc2c[nH]c3ccccc23)C(=O)NCCCN2CCCCC2)cc1 [Compound 22]	0.64 ± 0.13	47 ± 6.98	Experiment value of logP [4]: 4.1; Decrease of elastase activity (pig pancreatic elastase): did not decrease activity; IC50 [2, 6]: 5.98 ± 0.43 µM; IC50—D168A/IC50—wt ratio [5]: 1.4; Change in potency, D168A mutant versus wt protease ([5]; result in words): no significant reduction on potency; IC50 [3, 7]: 5.2 µM and 4.6 µM; Potency lower than simeprevir ([3]; wt protease IC50 compared with simeprevir): 120 fold; Decrease of proteinase K activity (proteinase K): did not decrease activity; Decrease of trypsin activity (bovine trypsin): did not decrease activity; Decrease of chymotrypsin activity (human chymotrypsin): did not decrease activity
CC1CCCCN1CCCNC(=O)C(Cc1c[nH]c2ccc(F)cc12)NC(=O)Nc1cc(Cl)ccc1Cl (centres unmarked) [Compound 2]	6.12 ± 2.3		
O=C(Nc1ccccc1Br)NC(Cc1c[nH]c2ccccc12)C(=O)NCCCNC1CCC(O)CC1 (centres unmarked) [Compound 19]	32.6 ± 14.8	> 100	
CCOC(=O)C1CCCCN1CCCNC(=O)C(Cc1c[nH]c2ccccc12)NC(=O)Nc1ccccc1Br (centres unmarked) [Compound 17]	2.98 ± 1.08		
COc1ccc2c(O[C@@H]3C[C@H]4C(=O)N[C@]5(C(=O)NS(=O)(=O)C6CC6)C[C@H]5/C=C\CCCCN(C)C(=O)[C@@H]4C3)cc(-c3nc(C(C)C)cs3)nc2c1C [Simeprevir, reference compound]			IC50 [2, 6]: 0.247 ± 0.39 µM; IC50—D168A/IC50—wt ratio [5]: 5.7; IC50 [3, 7]: 0.043 µM
Cc1ccc2[nH]cc(CC(NC(=O)Nc3cc(Cl)ccc3Cl)C(=O)NCCCN3CCCCC3C)c2c1 (centres unmarked) [Compound 7]	6.35 ± 1.11		
O=C(Nc1cccc(Br)c1)N[C@@H](Cc1c[nH]c2ccccc12)C(=O)NCCCN1CCCCC1 [Compound 21]	1.3 ± 1.25	29.5 ± 1.48	
CC1CCCCN1CCCNC(=O)C(Cc1c[nH]c2ccccc12)NC(=O)Nc1ccc(N(C)C)cc1 (centres unmarked) [Compound 6]	63.4 ± 11	> 100	
